Measured values reported in ChEMBL document CHEMBL1201862, “PubChem BioAssay data set” (2004).
Calls of active or inactive are those of the source.

Columns and labels:
BJ = assay: cells; type: functional, cell-based; details: Homo sapiens
[1] = molecular target: Transitional endoplasmic reticulum ATPase (Homo sapiens, UniProt P55072); assay: p97 ATPase inhibitors, dose response, biochemical (AID 1534)
[2] = molecular target: 1-phosphatidylinositol 4,5-bisphosphate phosphodiesterase gamma-1 (Homo sapiens, UniProt P19174); assay: Counterscreen for inhibitors of phospholipase C isozymes (PLC-B3): Fluorescence-based biochemical high throughput dose response assay to identify inhibitors of phospholipase C isozymes (PLC-gamma1).
Caspase-3 = molecular target: T1, Caspase-3 (Homo sapiens, UniProt P42574); type: functional;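 note: Dose-response selectivity test against caspase-3 for candidate inhibitors of sentrin-specific proteases (SENPs)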
T1 sequence (P42574 whole entry): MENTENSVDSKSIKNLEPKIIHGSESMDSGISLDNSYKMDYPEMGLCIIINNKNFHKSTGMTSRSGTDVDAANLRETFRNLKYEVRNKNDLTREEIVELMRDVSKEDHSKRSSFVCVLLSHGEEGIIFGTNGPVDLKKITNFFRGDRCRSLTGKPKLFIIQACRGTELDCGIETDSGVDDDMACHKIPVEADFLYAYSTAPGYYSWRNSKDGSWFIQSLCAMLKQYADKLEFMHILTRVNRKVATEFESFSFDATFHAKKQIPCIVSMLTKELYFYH

[3] = molecular target: T2, Sentrin-specific protease 7 (Homo sapiens, UniProt Q9BQF6); type: functional;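 note: Luminescence-based dose-response confirmation of ultra-high-throughput screening hits, measuring inhibition of SENP7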
T2 sequence (Q9BQF6 whole entry): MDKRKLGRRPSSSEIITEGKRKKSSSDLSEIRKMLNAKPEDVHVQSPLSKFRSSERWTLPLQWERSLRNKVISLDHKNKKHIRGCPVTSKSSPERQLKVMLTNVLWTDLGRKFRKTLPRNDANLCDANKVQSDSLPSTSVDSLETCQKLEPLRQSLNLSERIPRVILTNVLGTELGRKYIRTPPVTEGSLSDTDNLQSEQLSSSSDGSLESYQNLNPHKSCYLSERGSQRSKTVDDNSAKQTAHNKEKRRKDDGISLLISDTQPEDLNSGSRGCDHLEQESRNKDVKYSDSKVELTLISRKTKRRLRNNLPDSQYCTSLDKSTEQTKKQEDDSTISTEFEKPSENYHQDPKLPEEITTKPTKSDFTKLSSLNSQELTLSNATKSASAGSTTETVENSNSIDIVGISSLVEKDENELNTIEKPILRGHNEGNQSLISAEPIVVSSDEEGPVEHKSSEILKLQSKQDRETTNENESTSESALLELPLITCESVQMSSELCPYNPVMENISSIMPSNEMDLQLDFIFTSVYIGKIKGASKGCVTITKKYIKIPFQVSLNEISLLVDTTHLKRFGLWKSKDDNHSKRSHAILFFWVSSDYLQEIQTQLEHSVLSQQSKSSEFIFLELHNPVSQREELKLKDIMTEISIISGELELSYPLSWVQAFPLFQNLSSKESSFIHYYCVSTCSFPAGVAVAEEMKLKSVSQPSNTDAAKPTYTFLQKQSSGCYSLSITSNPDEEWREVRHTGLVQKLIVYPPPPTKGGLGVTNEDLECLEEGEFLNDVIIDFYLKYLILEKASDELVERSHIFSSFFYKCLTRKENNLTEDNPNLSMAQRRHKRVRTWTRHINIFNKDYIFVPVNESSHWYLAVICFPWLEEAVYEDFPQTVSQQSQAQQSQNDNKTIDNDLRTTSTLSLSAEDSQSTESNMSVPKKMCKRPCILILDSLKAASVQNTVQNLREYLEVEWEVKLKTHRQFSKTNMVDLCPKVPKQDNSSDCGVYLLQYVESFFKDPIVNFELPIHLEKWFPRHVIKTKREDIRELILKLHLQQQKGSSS

[4] = molecular target: T3, Sentrin-specific protease 6 (Homo sapiens, UniProt Q9GZR1); type: functional;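 note: Luminescence-based dose-response confirmatory assay of SENP6 inhibition, following up an ultra-high-throughput screen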
T3 sequence (Q9GZR1 whole entry): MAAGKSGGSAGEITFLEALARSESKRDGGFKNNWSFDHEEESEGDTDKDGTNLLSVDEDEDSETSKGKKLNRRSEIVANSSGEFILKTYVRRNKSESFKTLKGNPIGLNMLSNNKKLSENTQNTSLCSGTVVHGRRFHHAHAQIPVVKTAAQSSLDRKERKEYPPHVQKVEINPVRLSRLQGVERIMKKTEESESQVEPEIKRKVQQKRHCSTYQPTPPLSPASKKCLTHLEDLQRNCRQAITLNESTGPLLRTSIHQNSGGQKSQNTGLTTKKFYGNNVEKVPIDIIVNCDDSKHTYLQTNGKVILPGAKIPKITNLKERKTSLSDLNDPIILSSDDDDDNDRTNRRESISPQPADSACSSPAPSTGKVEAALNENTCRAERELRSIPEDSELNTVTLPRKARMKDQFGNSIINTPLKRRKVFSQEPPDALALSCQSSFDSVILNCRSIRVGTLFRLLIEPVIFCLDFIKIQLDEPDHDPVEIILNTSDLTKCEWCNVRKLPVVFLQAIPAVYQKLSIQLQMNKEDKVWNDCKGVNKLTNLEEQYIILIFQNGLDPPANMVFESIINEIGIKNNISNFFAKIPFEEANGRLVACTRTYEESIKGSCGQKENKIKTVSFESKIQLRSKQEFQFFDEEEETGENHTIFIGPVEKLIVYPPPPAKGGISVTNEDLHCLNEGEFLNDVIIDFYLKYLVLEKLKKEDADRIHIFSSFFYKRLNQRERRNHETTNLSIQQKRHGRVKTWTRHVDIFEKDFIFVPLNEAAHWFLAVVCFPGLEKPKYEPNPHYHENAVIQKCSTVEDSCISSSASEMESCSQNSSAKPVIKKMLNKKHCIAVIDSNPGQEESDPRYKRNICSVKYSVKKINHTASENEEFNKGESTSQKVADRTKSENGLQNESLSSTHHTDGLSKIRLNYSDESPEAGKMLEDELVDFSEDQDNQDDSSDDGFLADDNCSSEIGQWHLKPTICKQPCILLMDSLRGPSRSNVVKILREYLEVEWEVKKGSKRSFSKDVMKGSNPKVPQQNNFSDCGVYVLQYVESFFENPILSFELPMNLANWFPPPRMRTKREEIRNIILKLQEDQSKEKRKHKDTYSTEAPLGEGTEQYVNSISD

[5] = molecular target: T4, Sentrin-specific protease 8 (Homo sapiens, UniProt Q96LD8); type: functional;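 note: luminescence read-out of SENP8 inhibition, dose-response confirmation following an ultra-high-throughput screen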
T4 sequence (Q96LD8 whole entry): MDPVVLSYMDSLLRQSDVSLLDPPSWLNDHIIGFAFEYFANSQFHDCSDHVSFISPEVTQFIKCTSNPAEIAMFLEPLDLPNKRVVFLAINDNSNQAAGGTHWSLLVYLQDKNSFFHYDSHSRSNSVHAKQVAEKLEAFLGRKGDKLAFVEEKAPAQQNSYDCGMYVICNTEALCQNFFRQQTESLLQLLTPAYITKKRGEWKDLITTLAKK

[6] = molecular target: Kappa-type opioid receptor (Homo sapiens, UniProt P41145); type: functional
[7] = cytotoxicity toward NIH3T3 fibroblasts, dose response, counter-screen, cell-based, ATP luminescence, mouse fibroblasts (AID 2010); type: functional;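 note: cells exposed to compound for about 90 hours before reading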
CHO = assay: cytotoxicity in TLR9-MyD88 CHO cells, dose response, cytotoxicity control for TLR9-MyD88 binding inhibitor project, cell-based, luminescence (AID 588339); type: functional, hamster; details: Cricetulus griseus;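 note: CHO cells stably coexpressing TLR9 and MyD88 fusions from primary screen; compound exposure lasted 48 hours before viability readout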

Sequence of Transitional endoplasmic reticulum ATPase (P55072 whole entry): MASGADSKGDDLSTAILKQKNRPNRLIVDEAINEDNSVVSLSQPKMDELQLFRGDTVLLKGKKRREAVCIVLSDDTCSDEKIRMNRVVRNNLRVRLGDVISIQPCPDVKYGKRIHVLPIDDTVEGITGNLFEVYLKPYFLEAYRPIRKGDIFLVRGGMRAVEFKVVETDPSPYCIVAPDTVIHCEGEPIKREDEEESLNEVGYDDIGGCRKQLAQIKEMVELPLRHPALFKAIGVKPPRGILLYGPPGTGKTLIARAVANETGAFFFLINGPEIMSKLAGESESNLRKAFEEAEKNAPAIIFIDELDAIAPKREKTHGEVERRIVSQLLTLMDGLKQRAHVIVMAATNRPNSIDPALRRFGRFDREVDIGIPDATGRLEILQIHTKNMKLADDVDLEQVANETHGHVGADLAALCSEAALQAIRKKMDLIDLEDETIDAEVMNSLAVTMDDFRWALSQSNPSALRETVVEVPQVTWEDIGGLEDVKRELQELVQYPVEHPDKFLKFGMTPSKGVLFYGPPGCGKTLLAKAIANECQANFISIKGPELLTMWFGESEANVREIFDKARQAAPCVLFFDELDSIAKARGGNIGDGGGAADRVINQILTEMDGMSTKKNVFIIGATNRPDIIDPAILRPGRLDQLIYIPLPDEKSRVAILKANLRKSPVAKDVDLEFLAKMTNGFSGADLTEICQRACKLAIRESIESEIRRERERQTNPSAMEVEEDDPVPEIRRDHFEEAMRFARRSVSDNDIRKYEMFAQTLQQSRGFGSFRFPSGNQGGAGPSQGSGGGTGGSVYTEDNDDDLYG
Sequence of 1-phosphatidylinositol 4,5-bisphosphate phosphodiesterase gamma-1 (P19174 whole entry): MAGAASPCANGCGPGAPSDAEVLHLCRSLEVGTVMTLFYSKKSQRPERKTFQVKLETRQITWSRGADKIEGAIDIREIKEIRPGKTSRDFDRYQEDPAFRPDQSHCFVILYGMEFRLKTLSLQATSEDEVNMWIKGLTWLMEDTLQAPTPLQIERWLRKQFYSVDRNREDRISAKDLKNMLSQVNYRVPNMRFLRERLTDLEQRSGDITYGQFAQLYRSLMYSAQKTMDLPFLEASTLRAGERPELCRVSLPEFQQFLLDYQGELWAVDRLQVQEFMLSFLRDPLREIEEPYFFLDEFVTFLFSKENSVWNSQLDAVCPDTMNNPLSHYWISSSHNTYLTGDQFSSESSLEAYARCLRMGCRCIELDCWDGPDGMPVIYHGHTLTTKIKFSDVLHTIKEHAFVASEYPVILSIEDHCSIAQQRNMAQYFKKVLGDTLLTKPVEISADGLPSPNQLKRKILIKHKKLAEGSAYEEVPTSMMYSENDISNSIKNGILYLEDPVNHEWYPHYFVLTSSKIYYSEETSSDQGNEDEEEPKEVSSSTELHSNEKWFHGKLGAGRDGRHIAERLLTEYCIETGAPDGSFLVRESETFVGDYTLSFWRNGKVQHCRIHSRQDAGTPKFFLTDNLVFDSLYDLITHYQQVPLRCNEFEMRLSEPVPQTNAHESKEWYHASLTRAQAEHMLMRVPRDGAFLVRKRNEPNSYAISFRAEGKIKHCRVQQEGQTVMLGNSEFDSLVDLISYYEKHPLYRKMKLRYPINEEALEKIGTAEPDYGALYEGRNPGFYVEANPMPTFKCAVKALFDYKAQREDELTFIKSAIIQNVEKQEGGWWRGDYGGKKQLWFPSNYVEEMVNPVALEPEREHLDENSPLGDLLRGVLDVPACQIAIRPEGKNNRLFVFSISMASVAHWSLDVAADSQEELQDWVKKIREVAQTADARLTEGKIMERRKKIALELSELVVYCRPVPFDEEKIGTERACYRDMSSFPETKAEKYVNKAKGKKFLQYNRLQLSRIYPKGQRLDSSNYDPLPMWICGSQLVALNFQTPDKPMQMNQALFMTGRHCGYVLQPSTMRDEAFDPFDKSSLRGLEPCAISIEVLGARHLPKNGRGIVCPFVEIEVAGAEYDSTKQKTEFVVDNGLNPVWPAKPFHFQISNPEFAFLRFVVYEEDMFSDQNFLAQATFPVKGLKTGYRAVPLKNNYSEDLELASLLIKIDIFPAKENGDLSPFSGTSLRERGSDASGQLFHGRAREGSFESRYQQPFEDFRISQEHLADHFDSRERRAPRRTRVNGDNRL
Sequence of Kappa-type opioid receptor (P41145 whole entry): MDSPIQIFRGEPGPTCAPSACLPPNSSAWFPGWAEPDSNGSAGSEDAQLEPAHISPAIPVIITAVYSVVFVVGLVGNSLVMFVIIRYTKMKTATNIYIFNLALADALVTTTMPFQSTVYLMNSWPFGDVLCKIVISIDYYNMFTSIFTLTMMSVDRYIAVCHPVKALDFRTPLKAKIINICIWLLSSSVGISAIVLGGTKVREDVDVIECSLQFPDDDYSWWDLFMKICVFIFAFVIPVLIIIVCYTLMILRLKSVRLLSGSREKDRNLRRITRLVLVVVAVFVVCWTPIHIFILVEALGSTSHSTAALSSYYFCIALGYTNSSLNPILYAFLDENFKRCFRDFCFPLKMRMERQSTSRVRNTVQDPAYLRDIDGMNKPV

Compound | EC50 (BJ) | IC50 [1] | IC50 (Caspase-3) | IC50 [3] | IC50 [4] | IC50 [5] | EC50 [7] | further results
O=C1C(=O)c2ccccc2-c2ccccc21 [9,10-PHENANTHRENEQUINONE] | 5.99 µM (inconclusive) | > 50 µM (not active) |  |  |  |  |  | IC50 [2]: 6.37 µM (active)
COCCCNC(=O)c1ccc2c3c(onc13)-c1ccccc1C2=O | > 150 µM (not active) |  |  |  |  |  |  | 
CCc1ccc(OCC(=O)N/N=C2\CC(=O)c3ccccc32)cc1 |  |  | 3.7 µM (active) | > 100 µM (inactive) | 4.06 µM (active) | 8.49 µM (active) |  | 
CCC(=O)OCCNc1cc(Sc2nccn2C)c2nonc2c1[N+](=O)[O-] |  |  |  |  |  |  | 3.62 µM (active) | IC50 [6]: 4.05 µM (active); IC50 (CHO): 2.38 µM (active)
CCCCn1c(NC(=O)c2ccccc2Cl)c(C#N)c2nc3ccccc3nc21 |  | > 50 µM (not active) | 12.2 µM (active) | 2.96 µM (active) | 0.986 µM (active) | 1.99 µM (active) |  | 
O=C1C=C(N(CCO)Cc2ccccc2)c2ccccc2C1=O |  |  |  |  |  |  | 5.31 µM (active) | 
